Laboratory results published in patent publication US6147230A, “Amino acid dysiherbaine” (priority 1996, dated 2000).
Where two headings read alike, the source gives them in different places.

Experiments:
[1] = target: KA receptors; assay: Radiobinding assay in rat brain synaptic membrane samples, [^3 H] kainic acid (KA receptors); assay type: binding; settings: [^3 H] kainic acid 1 nM, 4° C., 1 hour; for IC50: 100 mM Tris-acetate pH 7.1, read-out: IC50, inhibition of [^3 H] kainic acid binding
Description: (§1) Radiobinding assay in rat brain synaptic membrane samples
(§2) Rat brain synaptic membrane samples were prepared according to the described protocols (London, E. D., Coyle, J. T., Mol. Pharmacol. 1979, 15, 492; Murphy, D. E., Snowhill, E. W.; Williams, M., Neurochem. Res. 1987, 12, 775 and Murphy, D. E., Hutchison, A. J., Hurt, S. D., Williams, M., Sills, M. A., Br. J. Pharmacol. 1988, 95, 932). Radioligands and incubation conditions used in the binding assay as well as experimental results are as follows:
[Conditions]: ligand [^3 H] kainic acid 1 nM; incubation medium 100 mM Tris-acetate buffer (pH 7.1); incubation condition 4° C., 1 hour.

[2] = target: AMPA receptors; assay: Radiobinding assay in rat brain synaptic membrane samples, [^3 H] AMPA (AMPA receptors); assay type: binding; settings: [^3 H] AMPA 5 nM, 4° C., 1 hour; for IC50: 100 mM KSCN/50 mM Tris-acetate pH 7.4, read-out: IC50, inhibition of [^3 H] AMPA binding
Description: as §1, §2
[Conditions]: ligand [^3 H] AMPA 5 nM; incubation medium 100 mM KSCN/50 mM Tris-acetate buffer (pH 7.4); incubation condition 4° C., 1 hour.

[3] = test system: Glutamate receptors expressed in primary cultures of rat cerebral cortex neurocytes; assay: Electrophysiological evaluation (patch clamp whole cell) in primary cultures of rat cerebral cortex neurocytes; assay type: cell-based
Text: Electrophysiological evaluation in primary cultures of rat cerebral cortex neurocytes

[4] = test system: rats; settings: prior art statement; cited from earlier work
[5] = test system: DDY mouse; assay: Intraperitoneal administration to mice; assay type: in vivo
Description: Intraperitoneal administration to mice
Compound (1) was diluted with purified water and intraperitoneally injected into a DDY mouse (male, 15 g).

[6] = test system: NMDA receptors; assay: Radiobinding assay in rat brain synaptic membrane samples, [^3 H] CGS-19755 (NMDA receptors); assay type: binding; settings: [^3 H] CGS-19755 10 nM; 50 mM Tris-acetate pH 8.0; 4° C., 1 hour
Description: as §1, §2
[Conditions]: ligand [^3 H] CGS-19755 10 nM; incubation medium 50 mM Tris-acetate buffer (pH 8.0); incubation condition 4° C., 1 hour.

[7] = inward current, patch clamp whole cell; cultures grown 10-21 days
[8] = read-out: EC50, inward current; patch clamp whole cell; cultures grown 10-21 days

**Q.** With `N[C@@H](CCC(=O)O)C(=O)O` [Glutamic acid, L-glutamic acid, reference compound] as the compound, how does the IC50 [1] read?
**A.** Its IC50 is 110 ± 18 nM.

**Q.** And the IC50 [2]?
**A.** Its IC50 is 124 ± 41 nM.

**Q.** For `N#Cc1cc2[nH]c(=O)c(=O)[nH]c2cc1[N+](=O)[O-]` [CNQX, 6-cyano-7-nitroquinoxaline-2,3-dione], which “inhibition of the current induced by Compound (1)” value ([3]; current induced by Compound (1)) is on record?
**A.** The value was “significantly inhibited”.

**Q.** For `C=C(C)[C@H]1CN[C@H](C(=O)O)[C@H]1CC(=O)O` [Kainic acid, kainic acid], which IC50 [1] is on record?
**A.** The IC50 was 4.3 ± 0.5 nM.

**Q.** And the Max response [3, 7]?
**A.** Its Max response is 1.31 nA.

**Q.** And the EC50 [3, 8]?
**A.** The EC50 was 40000 nM.

**Q.** And the “lesions and neuronal degeneration in rats” value [4]?
**A.** Its value is “induces epileptoid lesions and neuronal degeneration in rats”.

**Q.** What does the source list for `Cc1onc(O)c1CC(N)C(=O)O` (stereo not drawn) [AMPA, α-amino-3-hydroxy-5-methyl-4-isoxazolepropionic acid]?
**A.** IC50 [2]: 5.6 ± 1.1 nM; Max response [3, 7]: 1.26 nA; EC50 ([3]; patch clamp whole cell; cultures grown 10-21 days; read-out: EC50, inward current): 4000 nM

**Q.** With `CNC1C(O)COC2CC(CC(N)C(=O)O)(C(=O)O)OC21` (centres unmarked) [Compound (1), dysiherbaine] as the compound, how does the “behavioural effect, low dose” value ([5]; 20 μg/kg i.p., male DDY mouse) read?
**A.** The value was “repeat scratching on the flank”.

**Q.** What about the “duration of repeated scratching on the flank” value ([5]; 20 μg/kg i.p., male DDY mouse) of the same compound?
**A.** Its value is 10 to 20 min.

**Q.** What about the “behavioural effect, moderate dose” value ([5]; 1.3 mg/kg i.p., male DDY mouse) of the same compound?
**A.** Its value is “epileptoid spasm”.

**Q.** What about the “recovery, moderate dose” value ([5]; 1.3 mg/kg i.p., male DDY mouse) of the same compound?
**A.** The value was “recovered from this condition on the following day”.

**Q.** What about the “effect, higher dose” value ([5]; 6.5 mg/kg i.p., male DDY mouse) of the same compound?
**A.** Its value is “died in about 40 minutes after violent attack”.

**Q.** What about the time to death ([5]; 6.5 mg/kg i.p., male DDY mouse) of the same compound?
**A.** The time to death was “about 40 minutes”.

**Q.** What about the “in vivo activity compared with domoic acid” value ([5]; compared with known KA agonist domoic acid) of the same compound?
**A.** Its value is “stronger in vivo activity than a known KA agonist domoic acid”.

**Q.** And the IC50 [1]?
**A.** The IC50 was 59 ± 7.8 nM.

**Q.** And the “inhibition of [^3 H] kainic acid binding to KA receptors” value ([1]; pH 7.1)?
**A.** The value was “concentration-dependently inhibited”.

**Q.** What about the IC50 [2] of the same compound?
**A.** The IC50 was 224 ± 22 nM.

**Q.** And the “inhibition of [^3 H] AMPA binding to AMPA receptors” value ([2]; pH 7.4)?
**A.** The value was “concentration-dependently inhibited”.

**Q.** And the “inhibition of [^3 H] CGS-19755 binding to NMDA receptors” value [6]?
**A.** The value was “did not inhibit”.

**Q.** What about the “inward current compared with kainic acid” value ([3]; compared with kainic acid) of the same compound?
**A.** The value was “stronger inward current than kainic acid”.

**Q.** What about the Max response [3, 7] of the same compound?
**A.** The Max response was 1.40 nA.

**Q.** What about the “induction of inward current” value ([3]; patch clamp whole cell) of the same compound?
**A.** The value was “concentration-dependently induced a strong inward current”.

**Q.** And the EC50 [3, 8]?
**A.** Its EC50 is 4000 nM.
